Test system: A15T3 dsDNA (DNA, duplex) AAAAAAAAAAAAAAATCGTCGTCGTCGTCGTCGAAAAAAAAAAAAAAAAAGCAGTTGATCGTTTGGATACCCTGG/TTCGACGACGACGACGACGATTT
Assay: fluorescence quenching, log[(F0-F)/F] against log[DNA]
Conditions: unit not given; free DNA presumed to be A15T3 dsDNA; buffer of titration not stated

K: 0.026
SMILES: COc1cccc2c1C(=O)c1c(O)c3c(c(O)c1C2=O)C[C@@](O)(C(=O)CO)C[C@@H]3O[C@H]1C[C@H](N)[C@H](O)[C@H](C)O1

Reference: publication PMC8308135 (2021)
